“And” between values parts separate entries of the source, which are not always exact repeats. Equal entries are not always repeated. Where two headings read alike, the source gives them in different places.
Test: Pharmacokinetic study, 4ET-03-009 at 10 mg/kg oral
Type: in vivo, CD-1 male mice
Details: for AUCinf/D / Cmax/D: dose normalized; for concentration at 24 hours: read-out: Clast
Protocol: Compound 4ET-03-009 was dissolved in a 10% dimethylacetamide (DMA)/[…] solvent. CD-1 male mice were orally dosed with 10 mg/kg of compound 4ET-03-009 in 20 mL/kg of liquid. Plasma was collected at indicated timepoints and plasma concentration of compound 4ET-03-009 was measured using liquid chromatography-mass spectrometry/mass spectrometry (LC-MS/MS). Results are presented in FIG. 1 and Tables 3, 4, and 5.

[1] = male, CD-1, mouse, plasma, po, 10 mg/kg, Mean (n = 3)
[2] = male, CD-1, mouse, plasma, po, 10 mg/kg, individual animals

- Plasma Conc. (per mouse n = 3) (0.083 hours): 85.3 ng/mL and 106 ng/mL
- Plasma Conc. (per mouse n = 3) (0.25 hours): 147 ng/mL and 161 ng/mL
- Plasma Conc. (per mouse n = 3) (0.5 hours): 270 ng/mL and 205 ng/mL
- Plasma Conc. (per mouse n = 3) (1 hours): 318 ng/mL and 233 ng/mL
- Plasma Conc. (per mouse n = 3) (2 hours): 271 ng/mL and 216 ng/mL
- Plasma Conc. (per mouse n = 3) (4 hours): 169 ng/mL and 124 ng/mL
- Plasma Conc. (per mouse n = 3) (6 hours): 80.2 ng/mL and 70.6 ng/mL
- Plasma Conc. (per mouse n = 3) (8 hours): 62.9 ng/mL and 53.9 ng/mL
- Plasma Conc. (per mouse n = 3) (24 hours): 2.28 ng/mL and 1.84 ng/mL
- Tlast (Mean (n = 3)): 24.0 h
- t1/2 (Mean (n = 3)): 3.46 h
- AUCinf/D (Mean (n = 3)): 162 kg·h/kL
- Cmax/D (Mean (n = 3)): 29.4 kg/kL
- AUC0-8 hours (individual animals): 1349 ng·h/mL and 1066 ng·h/mL
- AUCinf (individual animals): 1882 ng·h/mL and 1520 ng·h/mL
- AUClast (individual animals): 1870 ng·h/mL and 1511 ng·h/mL
- Clast (individual animals): 2.28 ng/mL and 1.84 ng/mL
- Cmax (individual animals): 318 ng/mL and 233 ng/mL
- MRTinf (individual animals): 4.64 h and 4.74 h
- Tlast (individual animals): 24.0 h
- t1/2 (individual animals): 3.44 h and 3.37 h
- Cmax/D (individual animals): 33.1 kg/kL and 31.8 kg/kL and 23.3 kg/kL
- Tmax (male, CD-1, mouse, plasma, individual animals): 1 h
- concentration at 0.083 h (male, CD-1, mouse, plasma, oral, 10 mg/kg, 0.083 hours, mean n = 3, read-out: Plasma Conc. Mean): 90.4 ng/mL
- concentration at 0.083 h (male, CD-1, mouse, plasma, oral, 10 mg/kg, 0.083 hours, read-out: Plasma Conc. (per mouse n = 3)): 79.8 ng/mL
- concentration at 0.25 h (male, CD-1, mouse, plasma, oral, 10 mg/kg, 0.25 hours, mean n = 3, read-out: Plasma Conc. Mean): 138 ng/mL
- concentration at 0.25 h (male, CD-1, mouse, plasma, oral, 10 mg/kg, 0.25 hours, read-out: Plasma Conc. (per mouse n = 3)): 106 ng/mL
- concentration at 0.5 hours (male, CD-1, mouse, plasma, oral, 10 mg/kg, 0.5 hours, mean n = 3, read-out: Plasma Conc. Mean): 226 ng/mL
- concentration at 0.5 h (male, CD-1, mouse, plasma, oral, 10 mg/kg, 0.5 hours, read-out: Plasma Conc. (per mouse n = 3)): 202 ng/mL
- concentration at 1 h (male, CD-1, mouse, plasma, oral, 10 mg/kg, 1 hours, mean n = 3, read-out: Plasma Conc. Mean): 294 ng/mL
- concentration at 1 h (male, CD-1, mouse, plasma, oral, 10 mg/kg, 1 hours, read-out: Plasma Conc. (per mouse n = 3)): 331 ng/mL
- concentration at 2 h (male, CD-1, mouse, plasma, oral, 10 mg/kg, 2 hours, mean n = 3, read-out: Plasma Conc. Mean): 255 ng/mL
- concentration at 2 h (male, CD-1, mouse, plasma, oral, 10 mg/kg, 2 hours, read-out: Plasma Conc. (per mouse n = 3)): 227 ng/mL
- concentration at 4 h (male, CD-1, mouse, plasma, oral, 10 mg/kg, 4 hours, mean n = 3, read-out: Plasma Conc. Mean): 132 ng/mL
- concentration at 4 h (male, CD-1, mouse, plasma, oral, 10 mg/kg, 4 hours, read-out: Plasma Conc. (per mouse n = 3)): 104 ng/mL
- concentration at 6 h (male, CD-1, mouse, plasma, oral, 10 mg/kg, 6 hours, mean n = 3, read-out: Plasma Conc. Mean): 66.7 ng/mL
- concentration at 6 h (male, CD-1, mouse, plasma, oral, 10 mg/kg, 6 hours, read-out: Plasma Conc. (per mouse n = 3)): 49.3 ng/mL
- concentration at 8 h (male, CD-1, mouse, plasma, oral, 10 mg/kg, 8 hours, mean n = 3, read-out: Plasma Conc. Mean): 52.5 ng/mL
- concentration at 8 h (male, CD-1, mouse, plasma, oral, 10 mg/kg, 8 hours, read-out: Plasma Conc. (per mouse n = 3)): 40.6 ng/mL
- concentration at 24 h (male, CD-1, mouse, plasma, oral, 10 mg/kg, 24 hours, mean n = 3, read-out: Plasma Conc. Mean): 1.92 ng/mL
- concentration at 24 h (male, CD-1, mouse, plasma, oral, 10 mg/kg, 24 hours, read-out: Plasma Conc. (per mouse n = 3)): 1.64 ng/mL
- concentration at 24 hours (male, CD-1, mouse, plasma, oral, 10 mg/kg, Mean (n = 3)): 1.92 ng/mL
- concentration at 24 hours (male, CD-1, mouse, plasma, oral, 10 mg/kg, individual animals): 1.64 ng/mL
- AUC(0-inf) [1]: 1620 ng·h/mL
- MRT inf [1]: 4.5 h
- half-life [1]: 3.5 h
- AUC(0-t) (male, CD-1, mouse, plasma, po, 10 mg/kg, Mean (n = 3), read-out: AUC0-8 hours): 1180 ng·h/mL
- AUC(0-t) (male, CD-1, mouse, plasma, po, 10 mg/kg, Mean (n = 3), read-out: AUClast): 1610 ng·h/mL
- Cmax (male, CD-1, mouse, plasma, po, 10 mg/kg, Mean (n = 3), read-out: Cmax): 294 ng/mL
- AUC(0-inf) (male, CD-1, mouse, plasma, po, 10 mg/kg, for the study): 1620 ng·h/mL
- Cmax (male, CD-1, mouse, plasma, po, 10 mg/kg, for the study, read-out: Cmax): 716 nM
- AUC(0-inf) [2]: 1460 ng·h/mL
- MRT inf [2]: 4.12 h
- half-life [2]: 3.58 h
- AUC(0-t) (male, CD-1, mouse, plasma, po, 10 mg/kg, individual animals, read-out: AUC0-8 hours): 1120 ng·h/mL
- AUC(0-t) (male, CD-1, mouse, plasma, po, 10 mg/kg, individual animals, read-out: AUClast): 1460 ng·h/mL
- Cmax (male, CD-1, mouse, plasma, po, 10 mg/kg, individual animals, read-out: Cmax): 331 ng/mL
Compound: Cc1cc(Nc2cc(NC(=O)C3CC3)ncn2)c(=O)n2c1C(=O)NC21CCOCC1 [Compound 4ET-03-009, N-(6-((8-Methyl-1,5-dioxo-1,2′,3′,5,5′,6′-hexahydro-2H-spiro[imidazo[1,5-a]pyridine-3,4′-pyran]-6-yl)amino)pyrimidin-4-yl)cyclopropanecarboxamide]
- abnormal clinical symptoms during the study: No abnormal clinical symptoms were observed
- AUCinf/D (individual animals): 147 kg·h/kL and 188 kg·h/kL and 152 kg·h/kL

From patent publication US20230286983A1 (4E Therapeutics, Inc., priority 2020, published 2023)
